# Key:
# [1] = Measurement of plasma concentration of 5-ASA (HPLC) after administration to rats; format: in vivo, rat; details: for Plasma concentration of 5-ASA after oral administration (in words, FIG. 1): rats, p.o., 50 mg/kg as 5-ASA
# Method: To SD male rats at 7 weeks of age, 5-ASA was intravenously administered as a test drug, and the compound [1], the compound [2], the compound [3] or Pentasa ™ was orally administered at a dose of 50 mg/kg as5-ASA. The plasma concentration of 5-ASA was measured by high performance liquid chromatography (HPLC). As for Pentasa (registered trademark), granules obtained by pulverizing Pentasa (registered trademark) tablet were used.
# [2] = rat, in vivo; cited from earlier work
# [3] = Concentration of 5-ASA in colonic tissue and rectal tissue after oral administration; format: in vivo, rat; details: rats, p.o., 50 mg/kg as 5-ASA; FIGS. 6 and 7
# Method: Further, the compound [2] and Pentasa ™ were orally administered at a dose of 50 mg/kg as 5-ASA, and the colon and the rectum were homogenated and centrifuged. Then, the concentrations of 5-ASA in the colonic tissue and the rectal tissue were measured by high performance liquid chromatography (HPLC). As for Pentasa ™, granules obtained by pulverizing Pentasa ™ tablet were used.
# [4] = Amount of 5-ASA in cecal, proximal colonic, distal colonic and rectal contents after oral administration; format: in vivo, rat; details: rats, p.o., 50 mg/kg as 5-ASA; compared with Pentasa and 5-ASA; FIGS. 2-5
# Method: To SD male rats at 7 weeks of age, the compound [1], Pentasa ™ and 5-ASA were orally administered at a dose of 50 mg/kg as 5-ASA, and the contents in the cecum, the proximal colon, the distal colon and the rectum were homogenated and centrifuged. Then, the amount of 5-ASA in the respective sites of the large intestine was measured by high performance liquid chromatography (HPLC). As for Pentasa ™, granules obtained by pulverizing Pentasa ™ tablet were used.
# TNBS-induced colitis = assay: Trinitrobenzenesulfonic acid (TNBS)-induced colitis in rats; format: in vivo, rat; details: 3 days after TNBS, female SD rats
# Method: To a female SD rat fasted for 24 hours, an aqueous solution of TNBS/50% ethanol (30 mg/0.25 ml/rat) was administered in the colon at 8 cm from the anus using a probe for oral administration under pentobarbital anesthesia to induce colitis. At 3 days after the administration of TNBS, the colon was excised, and the wet weight of the colon of 8 cm long from the anus was weighed. The degree of colitis onset was scored in accordance with the method of Wallace et al. (Gastroenterology 96, 29-36 (1989)). As the test compounds, Pentasa ™ at doses of 30 mg/kg and 100 mg/kg and compound [1] at doses of 61.8 mg/kg and 205.9 mg/kg (corresponding to 30 mg/kg and 100 mg/kg in terms of 5-ASA) were orally administered twice a day (on the day of TNBS administration, once at 4 hours before TNBS administration). Pentasa ™ was administered as granules obtained by pulversing Pentasa ™ tablet.
structure (smiles),measurement,setting,value
"Nc1ccc(O)c(C(=O)O)c1 [Compound 5-ASA, 5-Aminosalicylic acid]",AUC,"[1]; rat, iv, plasma 5-ASA, SD male rats, i.v., 1 mg/kg, read-out: Area under the curve of concentration (AUC)",1420 ng·h/mL
C[C@@H]1C[C@H]2[C@@H]3CCC4=CC(=O)C=C[C@]4(C)[C@@]3(F)[C@@H](O)C[C@]2(C)[C@@]1(O)C(=O)COC1O[C@H](CO)[C@@H](O)[C@H](O)[C@H]1O (stereo partly drawn) [glucose derivative of dexamethasone],Fraction delivered to the cecum,[2],60%
"Nc1ccc(O[C@H]2O[C@H](CO)[C@H](O)[C@H](O)[C@H]2O)c(C(=O)O)c1 [[2], 5-amino-2-(α-D-galactopyranosyloxy)benzoic acid]","Plasma concentration of 5-ASA after oral administration (in words, FIG. 1)",[1],remained low as compared with those of Pentasa
same,Concentrations of 5-ASA in the colonic tissue and the rectal tissue,[3],higher as compared with Pentasa
"Nc1ccc(O[C@@H]2O[C@H](CO)[C@H](O)[C@H](O)[C@H]2O)c(C(=O)O)c1 [Compound [1], 5-amino-2-(β-D-galactopyranosyloxy)benzoic acid]","Plasma concentration of 5-ASA after oral administration (in words, FIG. 1)",[1],remained low as compared with those of Pentasa
same,"Amount of 5-ASA in the respective sites of the large intestine (cecum, proximal colon, distal colon, rectum contents)",[4],highest value
same,Damage score,TNBS-induced colitis; 61.8 mg/kg (corresponding to 30 mg/kg as 5-ASA) p.o. twice a day,significantly reduced
same,Increase of the wet weight of the colon,TNBS-induced colitis; 205.9 mg/kg (corresponding to 100 mg/kg as 5-ASA) p.o. twice a day,inhibited the increase of the wet weight of the colon significantly
"Nc1ccc(O[C@@H]2O[C@H](CO)[C@@H](O)[C@H](O)[C@H]2O)c(C(=O)O)c1 [[3], 5-amino-2-(β-D-glucopyranosyloxy)benzoic acid]","Plasma concentration of 5-ASA after oral administration (in words, FIG. 1)",[1],remained low as compared with those of Pentasa

# — patent US20070173461A1, “Glycoside prodrug of 5-aminosalicylic acid” (Nippon Shinyaku Co., Ltd., priority 2004, published 2007)
